Source: US20240101570A1 (AMGEN INC., priority 2020, published 2024)

Experiments:
HCT116 MTAP null cells = experiment: HCT116 MTAP null cell proliferation / viability (CellTiter-Glo, 6 days); type: cell-based; details: HCT116-MTAP null, 144 h, HCT116 MTAP null cells, 6 days, CellTiter-Glo; read-out: HCT-116 MTAP null IC50
Outline: (§1)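 Viability read by CellTiter-Glo after 6-day compound exposure of MTAP-null and wild-type HCT116 cells grown in RPMI 1640 with 10% FBS. Dosing used 1:3 steps from 1 or 10 μM (8-9 points) or 1:2 steps from 10 or 50 μM (22 points); IC50 taken where fitted curve crosses 50% of control.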

HCT116 WT cells = experiment: HCT116 WT cell proliferation / viability (CellTiter-Glo, 6 days); type: cell-based; details: Homo sapiens, HCT-116, 144 h, HCT116 WT cells, 6 days, CellTiter-Glo; read-out: HCT-116 WT IC50
Outline: as §1

| IC50 (HCT116 MTAP null cells) [µM] | IC50 (HCT116 WT cells) [µM] | SMILES |
| --- | --- | --- |
| 0.035 | 0.543 | C[C@H](c1ncccn1)N(Cc1ccc(OCC(F)(F)F)nn1)C(=O)c1ccc2nc(N)c3c(c2c1)COC3 [Example 453, 4-amino-N-((1R)-1-(2-pyrimidinyl)ethyl)-N-((6-(2,2,2-trifluoroethoxy)-3-pyridazinyl)methyl)-1,3-dihydrofuro[3,4-c]quinoline-8-carboxamide] |
| 0.55 | 17.9 | N#Cc1ccc(CN(C(=O)c2ccc3nc(N)c4c(c3c2)COC4)C2CC2)nc1 [Example 454, 4-amino-N-((5-cyano-2-pyridinyl)methyl)-N-cyclopropyl-1,3-dihydrofuro[3,4-c]quinoline-8-carboxamide] |
| 0.148 | 4.78 | Nc1nc2ccc(C(=O)N(Cc3ccc(Br)cn3)C3CC3)cc2c2c1COC2 [Example 455, 4-amino-N-((5-bromo-2-pyridinyl)methyl)-N-cyclopropyl-1,3-dihydrofuro[3,4-c]quinoline-8-carboxamide] |
| 0.287 | > 10 | Nc1nc2ccc(C(=O)N(Cc3ccc(C(F)F)cn3)C3CC3)cc2c2c1COC2 [Example 456, 4-amino-N-cyclopropyl-N-((5-(difluoromethyl)-2-pyridinyl)methyl)-1,3-dihydrofuro[3,4-c]quinoline-8-carboxamide] |
| 0.132 | 3.18 | N#Cc1ccc(CN(CC2(C#N)CC2)C(=O)c2ccc3nc(N)c4c(c3c2)COC4)nc1 [Example 457, 4-amino-N-((1-cyanocyclopropyl)methyl)-N-((5-cyano-2-pyridinyl)methyl)-1,3-dihydrofuro[3,4-c]quinoline-8-carboxamide] |
| 0.026 | 0.361 | C[C@H](c1ncccn1)N(Cc1ccc(C2CC2)nn1)C(=O)c1ccc2nc(N)c3c(c2c1)COC3 [Example 458, 4-amino-N-((6-cyclopropyl-3-pyridazinyl)methyl)-N-((1R)-1-(2-pyrimidinyl)ethyl)-1,3-dihydrofuro[3,4-c]quinoline-8-carboxamide] |
| 0.069 | 4.5 | N#Cc1ccc(CN(C(=O)c2cc3c4c(c(N)nc3cc2Cl)COC4)C2CC2)nc1 [Example 461, 4-amino-7-chloro-N-((5-cyano-2-pyridinyl)methyl)-N-cyclopropyl-1,3-dihydrofuro[3,4-c]quinoline-8-carboxamide] |
| 0.105 | 3.94 | COc1ccc(CN(C(=O)c2ccc3nc(N)c4c(c3c2)COC4)C(C)C)nc1Cl [Example 462, 4-amino-N-((6-chloro-5-methoxy-2-pyridinyl)methyl)-N-(2-propanyl)-1,3-dihydrofuro[3,4-c]quinoline-8-carboxamide] |
| 0.014 | 0.44 | COC[C@@H](C)N(Cc1ccc(Br)nn1)C(=O)c1ccc2nc(N)c3c(c2c1)COC3 [Example 463, 4-amino-N-((6-bromo-3-pyridazinyl)methyl)-N-((2R)-1-methoxy-2-propanyl)-1,3-dihydrofuro[3,4-c]quinoline-8-carboxamide] |
| 0.007 | 0.24 | Nc1nc2cc(Cl)c(C(=O)N(Cc3ccc(C(F)(F)F)cn3)CC3CC3)cc2c2c1COC2 [Example 464, 4-amino-7-chloro-N-(cyclopropylmethyl)-N-((5-(trifluoromethyl)-2-pyridinyl)methyl)-1,3-dihydrofuro[3,4-c]quinoline-8-carboxamide] |
| 0.031 | 1.23 | CC(C)N(Cc1ccc(OC(F)(F)F)cn1)C(=O)c1ccc2nc(N)c3c(c2c1)CO[C@@H]3C [Example 465, (3R)-4-amino-3-methyl-N-(2-propanyl)-N-((5-(trifluoromethoxy)-2-pyridinyl)methyl)-1,3-dihydrofuro[3,4-c]quinoline-8-carboxamide] |
| 0.028 | 0.217 | C[C@H](c1ncn(C)n1)N(Cc1ccc(C(F)F)cn1)C(=O)c1ccc2nc(N)c3c(c2c1)CO[C@@H]3C [Example 466, (3R)-4-amino-N-((5-(difluoromethyl)-2-pyridinyl)methyl)-3-methyl-N-((1R)-1-(1-methyl-1H-1,2,4-triazol-3-yl)ethyl)-1,3-dihydrofuro[3,4-c]quinoline-8-carboxamide] |
| 0.014 | 0.332 | C[C@H]1OCc2c1c(N)nc1ccc(C(=O)N(Cc3ccc(C(F)(F)F)cn3)c3cnn(C)c3)cc21 [Example 467, (3R)-4-amino-3-methyl-N-(1-methyl-1H-pyrazol-4-yl)-N-((5-(trifluoromethyl)-2-pyridinyl)methyl)-1,3-dihydrofuro[3,4-c]quinoline-8-carboxamide] |
| 0.008 | 0.208 | COC[C@@H](C)N(Cc1ccc(Br)nn1)C(=O)c1ccc2nc(N)c3c(c2c1)CO[C@@H]3C [Example 468, (3R)-4-amino-N-((6-bromo-3-pyridazinyl)methyl)-N-((2R)-1-methoxy-2-propanyl)-3-methyl-1,3-dihydrofuro[3,4-c]quinoline-8-carboxamide] |
| 0.025 | 0.55 | C[C@H](c1ncccn1)N(Cc1cc2c(cn1)OCCC2)C(=O)c1ccc2nc(N)c3c(c2c1)COC3 [Example 469, 4-amino-N-(3,4-dihydro-2H-pyrano [2,3-c]pyridin-6-ylmethyl)-N-((1R)-1-(2-pyrimidinyl)ethyl)-1,3-dihydrofuro[3,4-c]quinoline-8-carboxamide] |
| 0.041 | 3.02 | CN(Cc1ccc(C(F)(F)F)cn1)C(=O)c1cc2c3c(c(N)nc2cc1Cl)COC3 [Example 470, 4-amino-7-chloro-N-methyl-N-((5-(trifluoromethyl)-2-pyridinyl)methyl)-1,3-dihydrofuro[3,4-c]quinoline-8-carboxamide] |
| 0.043 | 1.16 | Nc1nc2ccc(C(=O)N(Cc3ccc(C(F)(F)F)cn3)C34CC(C3)C4)cc2c2c1COC2 [Example 471, 4-amino-N-(bicyclo[1.1.1]pentan-1-yl)-N-((5-(trifluoromethyl)-2-pyridinyl)methyl)-1,3-dihydrofuro[3,4-c]quinoline-8-carboxamide] |
| 0.267 | 14.9 | CN(Cc1ccc(C#N)cn1)C(=O)c1cc2c3c(c(N)nc2cc1Cl)COC3 [Example 472, 4-amino-7-chloro-N-((5-cyano-2-pyridinyl)methyl)-N-methyl-1,3-dihydrofuro[3,4-c]quinoline-8-carboxamide] |
| 0.03 | 1.33 | N#Cc1ccc(CN(CC2CC2)C(=O)c2cc3c4c(c(N)nc3cc2Cl)COC4)nc1 [Example 474, 4-amino-7-chloro-N-((5-cyano-2-pyridinyl)methyl)-N-(cyclopropylmethyl)-1,3-dihydrofuro[3,4-c]quinoline-8-carboxamide] |
| 0.375 | 7.81 | CN(Cc1ccc(C(F)(F)F)cn1)C(=O)c1cc2c3c(c(N)nc2cc1F)COC3 [Example 475, 4-amino-7-fluoro-N-methyl-N-((5-(trifluoromethyl)-2-pyridinyl)methyl)-1,3-dihydrofuro[3,4-c]quinoline-8-carboxamide] |
| 1.37 | 4.46 | N#Cc1ccc(CN(C(=O)c2cc3c4c(c(N)nc3cc2F)COC4)C2CC2)nc1 [Example 476, 4-amino-N-((5-cyano-2-pyridinyl)methyl)-N-cyclopropyl-7-fluoro-1,3-dihydrofuro[3,4-c]quinoline-8-carboxamide] |
| 0.655 | 19.4 | CC(C)N(Cc1ccc(C#N)cn1)C(=O)c1cc2c3c(c(N)nc2cc1F)COC3 [Example 477, 4-amino-N-((5-cyano-2-pyridinyl)methyl)-7-fluoro-N-(2-propanyl)-1,3-dihydrofuro[3,4-c]quinoline-8-carboxamide] |
| 0.082 | 9.58 | CN(Cc1ccc(C2CC2)cn1)C(=O)c1cc2c3c(c(N)nc2cc1Cl)COC3 [Example 478, 4-amino-7-chloro-N-((5-cyclopropyl-2-pyridinyl)methyl)-N-methyl-1,3-dihydrofuro[3,4-c]quinoline-8-carboxamide] |
| 0.328 | 17.1 | CN(Cc1ccc(C#N)cn1)C(=O)c1cc2c3c(c(N)nc2cc1F)COC3 [Example 479, 4-amino-N-((5-cyano-2-pyridinyl)methyl)-7-fluoro-N-methyl-1,3-dihydrofuro[3,4-c]quinoline-8-carboxamide] |
| 0.272 | 1.45 | Nc1nc2cc(Cl)c(C(=O)N(Cc3ccc(C4CC4)cn3)C3CC3)cc2c2c1COC2 [Example 480, 4-amino-7-chloro-N-cyclopropyl-N-((5-cyclopropyl-2-pyridinyl)methyl)-1,3-dihydrofuro[3,4-c]quinoline-8-carboxamide] |
| 0.074 | 5.71 | C[C@H]1OCc2c1c(N)nc1ccc(C(=O)N(Cc3ccc(C(F)(F)F)cn3)CC(F)(F)F)cc21 [Example 481, (3R)-4-amino-3-methyl-N-(2,2,2-trifluoroethyl)-N-((5-(trifluoromethyl)-2-pyridinyl)methyl)-1,3-dihydrofuro[3,4-c]quinoline-8-carboxamide] |
| 0.052 | 2.64 | CCOc1ccc(CN(C(=O)c2ccc3nc(N)c4c(c3c2)CO[C@@H]4C)C23CC(C2)C3)nn1 [Example 482, (3R)-4-amino-N-(bicyclo[1.1.1]pentan-1-yl)-N-((6-ethoxy-3-pyridazinyl)methyl)-3-methyl-1,3-dihydrofuro[3,4-c]quinoline-8-carboxamide] |
| 0.458 | 7.29 | Nc1nc2ccc(C(=O)N(Cc3ccc(C(F)(F)F)cn3)CC(F)(F)F)cc2c2c1COC2 [Example 483, 4-amino-N-(2,2,2-trifluoroethyl)-N-((5-(trifluoromethyl)-2-pyridinyl)methyl)-1,3-dihydrofuro[3,4-c]quinoline-8-carboxamide] |
